Data on 5 compounds can be found in patent US8778984B2, “Aldosterone synthase inhibitor” (Eli Lilly and Company, priority 2011, dated 2014).

As usually defined, the IC50 is the concentration needed to halve the response being measured.

One experiment concerns the target T1, human cyp11B2 (Homo sapiens, UniProt P19099).
T1 construct: expressed in transfected cells
T1 sequence (P19099 25-503): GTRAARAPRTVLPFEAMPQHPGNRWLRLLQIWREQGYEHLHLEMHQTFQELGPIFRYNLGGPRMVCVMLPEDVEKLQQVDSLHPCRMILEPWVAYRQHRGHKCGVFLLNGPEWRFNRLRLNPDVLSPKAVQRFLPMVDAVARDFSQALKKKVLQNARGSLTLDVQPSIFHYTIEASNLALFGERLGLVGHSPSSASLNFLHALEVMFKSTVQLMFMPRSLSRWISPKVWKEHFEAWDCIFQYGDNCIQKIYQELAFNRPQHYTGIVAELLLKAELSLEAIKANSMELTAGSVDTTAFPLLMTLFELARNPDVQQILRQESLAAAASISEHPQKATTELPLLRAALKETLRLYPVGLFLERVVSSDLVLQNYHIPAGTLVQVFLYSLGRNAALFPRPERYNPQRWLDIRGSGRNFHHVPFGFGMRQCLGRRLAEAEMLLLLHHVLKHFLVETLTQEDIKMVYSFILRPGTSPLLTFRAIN
Put plainly: Aldosterone Synthase Inhibitor Assay (V79-hcyp11B2 cells, aldosterone by LC-MS). The format is cell-based. The conditions noted are these: aldosterone production from 1 μM DOC, 24 hours incubation, geometric means, separate experiments. Here is the method:
Chinese hamster fibroblast cells (V79, ATCC™) constitutively expressing human cyp11B2 are established by transfection with a mammalian expression vector harboring the human cyp11B2 cDNA under CMV promoter and a neomycin antibiotic resistant gene for selection in mammalian cells. V79 cells are transfected in T225 cm^2 flasks with the lipofectamine transfection reagent and the human cyp11B2 cDNA. Positive clones are selected with the selection antibiotic geneticin at 1 mg/mL.
Aldosterone production from transfected cells is initiated by the addition of 1 μM DOC in the medium. After 24 hours incubation, 100 μL cell culture medium is collected and aldosterone concentration in the medium is determined using a liquid chromatography-mass spectrometry (LC-MS) method. […] The wells are then extracted 3× with EtOAc (150 μl) using the FX, combining the organic layers in a new 96-well plate. The solvent is dried in a GeneVac HT-4 or under nitrogen. […] A 25 μl aliquot of the sample is injected and a gradient from 20-100% ACN+0.1% formic acid (FA) in 1 min is initiated. Aldosterone elutes at 0.7 min. Starting conditions are held for 1 minute to re-equilibrate the column. An ABI 4000 tandem mass spectrometer is used for MS/MS analysis in the negative ion mode. […] The area under the peak from each transition is added together to comprise the signal from aldosterone and IS, respectively. […] The detection limit for aldosterone is […].
DOC and various concentrations of test compounds in 1:3 dilution increments are added to the cell culture medium. After 24 hours incubation, 100 μl of cell medium are collected and aldosterone concentration determined as described above. Data are fit to a 4 parameter-fit logistics curve to determine IC50 values.

Experiment [1] has as its system estradiol production from H295R cells. The experiment in a line: cells. The experiment is classed as cell-based, human. The conditions noted are these: Homo sapiens, NCI-H295R, 48 h, read-out: Estradiol IC50 (μM). Here is the method:
(§1) The human adrenocarcinoma cell line H295R is used to monitor the production of testosterone and estradiol in vitro. […] Various concentrations of test compounds in 1:3 dilution increments are added to the cell culture medium. After incubation for 48 hours, 100 μl culture medium is collected and d5-estradiol and d3-testosterone are added as ISs for estradiol and testosterone respectively.
(§2) An equal volume of sodium carbonate/sodium bicarbonate buffer (0.5 mol/L, pH 9.4) is added to the samples followed by freshly prepared dansyl chloride solution (50 μl, 20 mg/mL). Samples are mixed and incubated for 60 min at 60° C. The samples are then extracted 3× with EtOAc ([…]) using the FX, combining the organic layers in a new deep-well 96-well plate. The solvent is then dried in a GeneVac HT-4 or under nitrogen. The FX is used to reconstitute the samples in 50% MeOH/water ([…]) and the plates are heat-sealed.
(§3) A 40 μl aliquot of the sample is injected and a gradient from 20-100% MeOH in 0.95 min is initiated. An ABI QTRAP 4000 tandem mass spectrometer is used for MS/MS analysis in the positive ion mode. […] These peaks are separately integrated to give the peak areas. The area ratios of testosterone/IS and estradiol/IS are used to determine testosterone and estradiol concentrations by comparison to their respective standard curves. The detection limits for testosterone and estradiol are 0.1 ng/mL and 0.01 ng/mL respectively.

Experiment [2] concerns testosterone production from H295R cells. Put plainly: cells. The experiment is classed as cell-based, human. The conditions noted are these: Homo sapiens, NCI-H295R, 48 h, read-out: Testosterone IC50 (μM). On the procedure: as §1, §2, §3
Experiment [3] deals with aldosterone production in rats. The experiment in a line: Inhibition of Aldosterone Synthase in Rats (rat sodium-deficiency diet model). The experiment is classed as in vivo. The conditions noted are these: Example 1 10.0 mg/kg, Example 49 30.0 mg/kg, Fadrozole 1.0 mg/kg. Here is the method:
The effect of compounds on aldosterone production in rats is assessed using the rat sodium-deficiency diet model. […] At 3 hours post dose rats are bled (˜0.5 mL) from the ocular orbit under isoflurane anesthesia. At 6 hours post-dose the rats are euthanized with CO2 and bled by cardiac puncture. Blood samples are clotted at least 30 minutes and serum is prepared and stored at approximately −80° C. until assayed. Aldosterone, steroids, and compound exposure are analyzed by mass spectroscopy.

With `FC(F)(F)c1ccc(C2CCc3[nH]ncc32)cc1` (racemic) [Example 18, (+/−)-4-(4-Trifluoro-methylphenyl)-1,4,5,6-tetrahydrocyclopenta[c] pyrazole], half-maximal inhibition at human cyp11B2 (IC50) required 157 nM. As to `N#Cc1ccc([C@H]2CCc3cncn32)c(F)c1` [Novartis LCI699, reference compound], the IC50 was 0.123 µM in experiment [1] and 5.01 µM in experiment [2].

With `N#Cc1ccc(C2CCCc3[nH]ncc32)cc1F` (racemic) [Example 59, (+/−)-2-Fluoro-4-(4,5,6,7-tetrahydro-1H-indazol-4-yl)benzonitrile], on human cyp11B2, the IC50 was found to be 5 nM.

With `Cc1ccc(C2CCCc3n[nH]cc32)cc1` (single isomer, unassigned; isomer 2) [Example 54, 4-(p-Tolyl)-4,5,6,7-tetrahydro-2H-indazole-isomer 2], the IC50 against human cyp11B2 was 154 nM. On to `N#Cc1ccc(C2CCCc3cncn32)cc1` (stereo not drawn) [Fadrozole, fadrozole, reference compound], for which the “% Inhibition 3 hrs” value in experiment [3] (inhibition of aldosterone vs vehicle, 3 hrs post oral dose) is 64.4%. Moreover, the “% Inhibition 6 hrs” value in experiment [3] (inhibition of aldosterone vs vehicle, 6 hrs post oral dose) was found to be 55.2%. Moreover, the “Aldosterone (pg/mL) 3 hrs” value in experiment [3] (serum, 3 hrs post oral dose, rat Na-deficient diet model) is given as 669.8 pg/mL. The “Aldosterone (pg/mL) 6 hrs” value in experiment [3] (serum, 6 hrs post oral dose, rat Na-deficient diet model) is recorded as 1144.2 pg/mL.
